The text below walks through data of patent US20250230435A1, “METHODS OF TREATMENT OF GNAQ AND GNA11 DRIVEN DISEASE” (THE FRANCIS CRICK INSTITUTE LIMITED, priority 2022, published 2025).

Common to all, as to format: cell-based, human
The subject of series [1] is GNAQ c.548G>A, p.(R183Q) allele. Nature of the series: Western blot knock-down of HA-tagged Gαq in TIME cells expressing wild-type or p.R183Q. The following applies: 50 nM siRNA, 24 h after transfection, TIME cells stably expressing wild-type or p.R183Q HA-tagged Gαq. Here is the method:
(§1) FIG. 5—Designing and testing siRNA specific for GNAQ c.548G>A, p.(R183Q) A. Schematic representation of the 6 siRNAs designed to target specifically GNAQ c.548G>A allele. B. TIME cells stably expressing either wild-type or p.R183Q HA-tagged Gαq were transfected by 50 nM siRNAs targeting GNAQ c.548G>A, p.(R183Q) allele and analysed by western-blot 24 h after transfection. […] C. (average of three experiments, * p<0.05). D. Schematic representation of the 6 siRNAs designed to target specifically GNA11 c.547C>T p.(R183C). E. TIME cells stably expressing either wild-type or p.R183C HA-tagged Gα11 were transfected by 25 nM siRNAs targeting GNA11 c.547C>T, p.(R183C) allele and analysed by western-blot 24 h after transfection. […] (average of three experiments, * p<0.05).
(§2) hTERT-immortalised microvascular endothelial cells (TIME-ATCC CRL-4025TM, “TIME” cells) and their transgenic derivatives were maintained in EBMTM-2 Endothelial Cell Growth Basal Medium-2 (Lonza CC-3156), supplemented with EGMTM-2 BulletKit (Lonza CC-3162) and 3% fetal bovine serum (Gibco).
(§3) TIME cells were transduced with lentiviral vectors to induce stable expression of HA-tagged forms of GNAQ WT, GNAQ p.(R183Q), GNA11 WT, GNA11 p.(R183C) cDNAs (FIG. 4), and we confirmed presence of the mutations in the genomic DNA by Sanger sequencing (FIG. 4B). […]

Series [2] has as its system GNA11 c.547C>T, p.(R183C) allele. The series is described as follows: Western blot knock-down of HA-tagged Gα11 in TIME cells expressing wild-type or p.R183C. The following applies: 25 nM siRNA, 24 h after transfection, TIME cells stably expressing wild-type or p.R183C HA-tagged Gα11. Here is the method:
as §1, §2, §3

For another series, the system named is GNAQR183Q mutant allele. The series is described as follows: Expression of GNAQR183Q mutant allele in UPMM1, mutant-specific primers. The conditions noted are these: UPMM1 cells. Here is the method: (§4) FIG. 10—GNAQ and CRAC inhibition in uveal melanoma cells. […] UPMM1 cells were non-transfected or transfected with non-target control siRNA (siSCRA) or with 2 distinct GNAQR183Q-mutant specific siRNAs (siGNAQmut3 and siGNAQmut6) and expression of the mutant allele was measured by using GNAQR183Q-mutant specific primers previously validated (forward primer: […] (SEQ ID NO:25); reverse primer: […] (SEQ ID NO:26). B. Transfection with siRNAs silencing GNAQ mutant allele reduced GPCR ligand-induced calcium intra-cellular accumulation. Cells loaded with Fluo-8 calcium marker were stimulated by the GPCR ligand leukotriene D4 (LTD4) and fluorescence was recorded over the time. C. […] Cells loaded with Fluo-8 calcium probe were treated by CM4620 1, 3 or 10 μM, stimulated by the GPCR ligand leukotriene D4 (LTD4) and fluorescence was recorded over the time.

Series [3] concerns TIME GNAQR183Q cells. Nature of the series: Fluo-8 AM assay, thrombin-induced intracellular calcium, GNAQ variant cells. The following applies: 1 μM for 20 minutes, thrombin 1 U/ml. Here is the method:
(§5) FIG. 3—CRAC channel inhibition and variant-specific siRNAs rescue aberrant calcium signalling in variant cells. A-B. TIME-GNAQ^WT (A) or −GNAQ^R183Q (B) were loaded with intracellular calcium probe Fluo-8 and treated for 20 minutes with vehicle or 1 μM […]. Following treatment, cells were stimulated with thrombin 1 U/ml and fluorescence recorded for 300 seconds. The graphs represent an avarage of three independent experiments performed in technical quadruplicates. C. Means +/−SD deviation of areas under the curve calculated from three experiments summarised in […]. Statistical comparisons were performed by two-tailed paired t test (n.s=not statistically significant, * p=0.0284). […] IP1 concentration was measured 48 hours after transfection and shown as mean +/−SD of three independent experiments. […] TIME-GNAQ p.(R183Q); NFAT-Luc were transfected with non-target siRNA (siSCRA) or two siRNAs for specific silencing of the variant GNAQ allele (siGNAQmut 1 and 3) and luciferase reporter activity was measured 48 hours after transfection in complete medium or after four hours of starvation, shown as mean +/−SD of % change of cells transfected with mock in three independent experiments. […]

The test system of the next series is UPMM1 UM cell line. The series is described as follows: Fluo-8 assay, LTD4-induced intracellular calcium in UPMM1. The following applies: UPMM1, Fluo-8, 1, 3 or 10 μM, leukotriene D4 stimulation. The procedure: as §4
Series [4] relates to TIME GNAQWT cells. Nature of the series: Fluo-8 AM assay, thrombin-induced intracellular calcium, GNAQ WT cells. The following applies: 1 μM for 20 minutes, thrombin 1 U/ml. Here is the method: as §5
Series [5] has as its system TIME GNAQR183Q cells. The series is described as follows: In vitro angiogenesis (endothelial tube formation) assay, GNAQ variant cells. The following applies: 1 μM, in presence of thrombin 0.3 U/ml, vs vehicle. The source says: (§6) FIG. 8—In vitro angiogenesis is disrupted by mutant GNAQ and rescued by CRAC channel inhibition. (A) Representative images captured with EVOS Floid Imaging System following Calcein AM staining during in vitro endothelial cell tube formation of TIME cells stably expressing either GNAQ WT or GNAQ R183Q. […] Statistical significance calculated using two-tailed unpaired t-test on three independent experiments (**** p<0.0001). […] Results shown as mean of a technical triplicate for each of 4 independent experiments. Statistical analysis performed by two-tailed paired t-test on four independent experiments (n.s=not statistically significant, * p=0.0125). […] Results shown as mean +/−SD of three independent experiments, and statistical analysis performed by two-tailed paired t-test (n.s=not statistically significant, * p=0.04).
(§7) TIME endothelial cell models were used to assess angiogenesis using a standard in vitro angiogenesis assay. […] Furthermore, thrombin GPCR activation disrupted angiogenesis in GNAQR183Q more than in GNAQWT (FIG. 8C).

For series [6], the system named is TIME GNAQWT cells. Nature of the series: In vitro angiogenesis (endothelial tube formation) assay, GNAQ WT cells. The following applies: 1 μM, in presence of thrombin 0.3 U/ml, vs vehicle.
From the text: as §6, §7

Entries after “also recorded” stand apart in the source; their conditions may differ.

Regarding “UGCUUAGAGUUCAAGUCCC[dT][dT] (antisense GGGACUUGAACUCUAAGCA; dTdT overhangs, chemistry not fully specified) [siGNAQmut #1, siRNA to GNAQ c.548G>A p.(R183Q)]”, the “specific knock-down of variant Gαq protein over wild-type (western blot)” value in series [1] was “specific knock-down of variant protein over wild-type counterparts”.
For the molecule “CUGCGGGUCUGCGUGCCCA[dT][dT] (antisense UGGGCACGCAGACCCGCAG; dTdT overhangs, chemistry not fully specified) [siGNA11mut #4, siRNA to GNA11 c.547C>T p.(R183C)]”, the “specific knock-down of variant Gα11 protein over wild-type (western blot)” value in series [2] was “specific knock-down of variant protein over wild-type counterparts”.
In the case of “CUUAGAGUUCAAGUCCCCA[dT][dT] (antisense GGGGACUUGAACUCUAAGC; dTdT overhangs, chemistry not fully specified) [siGNAQmut #3, siRNA to GNAQ c.548G>A p.(R183Q)]”, the “specific knock-down of variant Gαq protein over wild-type (western blot)” value in series [1] was “specific knock-down of variant protein over wild-type counterparts”. Moreover, the “expression of the GNAQR183Q mutant allele” value with GNAQR183Q mutant allele was “reduced expression of the mutant allele”.
`Cc1cccc(F)c1C(=O)Nc1cnc(-c2cc3c(cc2Cl)OC(F)(F)O3)cn1` [CM4620]: the “thrombin-induced calcium signalling, GNAQ-variant cells” value in the series on TIME GNAQR183Q cells [3] is on record as “inhibits the variant cell response; also recorded: markedly rescuing the prolonged calcium intracellular peak”. The “GPCR ligand (LTD4)-induced accumulation of intracellular calcium” value in the series on UPMM1 UM cell line was “reduced the GPCR ligand-induced accumulation of intracellular calcium”. Moreover, the “thrombin-induced calcium signalling, GNAQ WT cells” value in the series with TIME GNAQWT cells [4] was “limited effects”. Also, the “tubule formation (total length of the network), GNAQR183Q” value with TIME GNAQR183Q cells [5] is recorded as “improved tubule formation”. In addition, the “tubule formation (total length of the network), GNAQWT” value in the series with TIME GNAQWT cells [6] is “no statistically significant difference; also recorded: not GNAQWT”.
“AGAGUUCAAGUCCCCACCA[dT][dT] (antisense UGGUGGGGACUUGAACUCU; dTdT overhangs, chemistry not fully specified) [siGNAQmut #6, siRNA to GNAQ c.548G>A p.(R183Q)]”: the “expression of the GNAQR183Q mutant allele” value with GNAQR183Q mutant allele is “reduced expression of the mutant allele”.
